The structures appear in SMILES notation. Where a name gives a salt, the structure may show the parent alone.

This is an account of results in US6875761B2 (Eisai Co., Ltd., priority 1997, dated 2005).

What is called melting point is the temperature, or range, at which the solid turns liquid. For the molecule `CCNS(=O)(=O)c1ccc(-c2cc3ccccc3c(N3CCN(CC)CC3)n2)cc1` (as salt: hydrochloride) [Example 357, 1-(4-ethylpiperazin-1-yl)-3-[4-(N-ethylsulfamoyl)phenyl]isoquinoline dihydrochloride], the melting point was 147 to 149 °C.
The figure for `CCN1CCN(c2nc(-c3ccc(OC)cc3)cc3cccc(F)c23)CC1` (as salt: hydrochloride) [Example 233, 1-(1-ethylpiperazin-4-yl)-8-fluoro-3-(4-methoxyphenyl)isoquinoline dihydrochloride] is 222 to 227 °C.
Molecule `CCN1CCN(c2nc(-c3ccc(OC)cc3)cc3ncccc23)CC1` (as salt: hydrochloride) [Example 252, 5-(1-ethylpiperazin-4-yl)-7-(4-methoxyphenyl)-1,6-naphthyridine Dihydrochloride] had a melting point of 242 to 245 °C.
The figure for `CCN1CCN(c2nc(-c3ccc([C@H]4CC[C@H](O)CC4)cc3)cc3ccccc23)CC1` (as salt: hydrochloride) [Example 398, 1-(4-Ethylpiperazin-1-yl)-3-[4-(trans-4-Hydroxycyclohexyl)Phenyl]Isoquinoline Dihydrochloride] is 157 to 158 °C (dec.); for `CCN1CCN(c2nc(-c3ccc(S(=O)(=O)NC)cc3)cc3ccccc23)CC1` (as salt: hydrochloride) [Example 361, 1-(4-ethylpiperazin-1-yl)-3-[4-(N-methylsulfamoyl)phenyl]isoquinoline dihydrochloride] it is 170 to 172 °C; for `CCN1CCN(c2nc(-c3ccc(N4C[C@@H](C)O[C@@H](C)C4)nc3)cc3ccccc23)CC1` (as salt: hydrochloride) [Example 149, 3-[2-(2,6-dimethylmorpholin-4-yl)pyridin-5-yl]-1-(4-ethylpiperazin-1-yl)isoquinoline trihydrochloride] it is 180 °C.
Turning to `CCN1CCN(c2nc(-c3ccc(C4CCOCC4)cc3)cc3ccccc23)CC1` (as salt: hydrochloride) [Example 83, 3-[4-(Tetrahydropyran-4-yl)phenyl]-1-(4-ethylpiperazin-1-yl)isoquinoline Hydrochloride], the melting point is 148 to 150 °C.
The figure for `CCN1CCN(c2nc(-c3ccc(N)cc3)cc3ccccc23)CC1` (as salt: hydrochloride) [Example 65, 3-(4-Aminophenyl)-1-(4-Ethylpiperazin-1-Yl)Isoquinoline Hydrochloride] is 267 to 268 °C; for `CCN1CCN(c2nc(-c3ccc(OC)c(CCCO)c3)cc3ccsc23)CC1` (as salt: oxalate) [Example 261, 5-[3-(3-hydroxypropyl)-4-methoxyphenyl]-7-(4-ethylpiperazin-1-yl)thieno[2,3-c]pyridine Oxalate] it is 98 to 102 °C; for `CCN1CCN(c2nc(-c3ccc(N4CCOCC4)nc3)cc3ccccc23)CC1` (as salt: hydrochloride) [Example 147, 1-(4-ethylpiperazin-1-yl)-3-[2-(morpholin-4-yl)pyridin-5-yl]isoquinoline trihydrochloride] it is 186 °C.
The figure for `CCN1CCN(c2nc(-c3ccc(OC)cc3)nc3ccccc23)CC1` (as salt: hydrochloride) [Example 427, 4-(4-ethylpiperazin-1-yl)-2-(4-methoxyphenyl)quinazoline Dihydrochloride] is 224.5 to 226 °C (dec.).
As to `CCN1CCN(c2nc(-c3ccc(OCC(O)COC)cc3)cc3ccccc23)CC1` (stereo not drawn) (as salt: hydrochloride) [Example 343, 1-(4-ethylpiperazin-1-yl)-3-[4-(2-hydroxy-3-methoxypropoxy)phenyl]isoquinoline dihydrochloride], the melting point is 216.5 to 218 °C (dec.).
Molecule `CCN1CCN(c2nc(-c3ccc(OCCn4ccnc4)cc3)cc3ccccc23)CC1` (as salt: hydrochloride) [Example 56, 3-{4-[2-(1-Imidazonyl)Ethoxy]phenyl}-1-(4-Ethylpiperazin-1-Yl)Isoquinoline Hydrochloride] yielded a melting point of 160 to 162 °C.
As to `CCCC(=O)c1ccc(-c2cc3ccccc3c(N3CCN(CC)CC3)n2)cc1` (as salt: hydrochloride), the melting point was 110 to 112.5 °C (dec.).
To `CCN1CCN(c2nc(-c3ccc(O[C@H](C)CO)cc3)cc3sccc23)CC1` (stereo in doubt) (as salt: hydrochloride) [Example 463, 4-(4-ethylpiperazin-1-yl)-6-[4-(2-hydroxy-1-methylethoxy)phenyl]thieno[3,2-c]pyridine dihydrochloride] belongs 124 to 125 °C.
The figure for `CCN1CCN(c2nc(-c3ccc(OCC(O)CO)cc3)cc3ccccc23)CC1` (stereo not drawn) (as salt: hydrochloride) [Example 337, 1-(4-ethylpiperazin-1-yl)-3-[4-(2,3-dihydroxypropoxy)phenyl]isoquinoline dihydrochloride] is 133 to 135 °C (dec.); for `COc1ccc(-c2cc3ccccc3c(N3CCN(CCC#N)CC3)n2)cc1` (as salt: hydrochloride) it is 164 to 166 °C.
Take `CCN1CCN(c2nc(-c3cnc(N4CCOCC4)s3)cc3ccccc23)CC1` (as salt: hydrochloride) [Example 173, 1-(1-ethylpiperazin-4-yl)-3-[2-(4-morpholinyl)-5-thiazolyl]isoquinoline dihydrochloride]: the melting point was 265 °C (dec.).
The figure for `CCN1CCN(c2nc(-c3ccc(S(C)(=O)=O)nc3)cc3ccccc23)CC1` (as salt: hydrochloride) [Example 129, 3-[(2-Methylsulfonylpyridin)-5-yl]-1-(4-Ethylpiperazin-1-yl)Isoquinoline Hydrochloride] is 248 to 250 °C.
The figure for `CCN1CCN(c2nc(-c3cc(F)c(OCCF)c(F)c3)cc3ccccc23)CC1` (as salt: hydrochloride) [Example 371, 1-(4-ethylpiperazin-1-yl)-3-[3,5-difluoro-4-(2-fluoroethoxy)phenyl]isoquinoline dihydrochloride] is 105 to 105.5 °C.
The figure for `CCN1CCN(c2nc(-c3ccc(S(=O)(=O)CCCO)cc3)cc3ccccc23)CC1` (as salt: hydrochloride) [Example 352, 1-(4-ethylpiperazin-1-yl)-3-[4-(3-hydroxypropyl)sulfonylphenyl]isoquinoline dihydrochloride] is 213 to 215 °C (dec.); for `CCCCc1ccc(-c2cc3ccccc3c(N3CCN(CC)CC3)n2)cc1` (as salt: hydrochloride) it is 190 to 192 °C (dec.); for `CCN1CCN(c2nc(-c3ccc4c(c3)CC(CO)CO4)cc3ccccc23)CC1` (stereo not drawn) (as salt: hydrochloride) [Example 122, 3-(3-Hydroxymethylchroman-6-yl)-1-(4-Ethylpiperazin-1-yl)Isoquinoline Hydrochloride] it is 168 to 172 °C.
`CCN1CCN(c2nc(-c3ccc(N4CCOCC4)cc3)cc3ccccc23)CC1` (as salt: hydrochloride) [Example 160, 3-[4-(4-morpholinyl)phenyl]-1-(4-ethylpiperazin-1-yl)isoquinoline dihydrochloride]: the melting point is 242 to 245 °C (dec.).
